ChEMBL document CHEMBL1800031, “Gold(III) chloride catalyzed regioselective synthesis of pyrano[3,4-b]indol-1(9H)-ones and evaluation of anticancer potential towards human cervix adenocarcinoma” (Bioorg Med Chem Lett, 2011)

system: HeLa; experiment: Cytotoxicity against human HeLa cells after 48 hrs by MTT assay; format: functional, cell-based

| SMILES | IC50 |
| --- | --- |
| CCCCn1c2ccc(OC)cc2c2cc(-c3ccccc3)oc(=O)c21 | 5 µM |
| COc1ccc2c(c1)c1cc(-c3ccccc3)oc(=O)c1n2Cc1ccccc1 | 6.7 µM |
| CCCCn1c2ccccc2c2cc(-c3ccccc3)oc(=O)c21 | 3.2 µM |
| O=c1oc(-c2ccccc2)cc2c1[nH]c1ccccc12 | 19.1 µM |
| Cn1c2ccccc2c2cc(-c3ccccc3)oc(=O)c21 | 1.9 µM |
| CCCCc1cc2c([nH]c3ccccc32)c(=O)o1 | 2.6 µM |
| COc1ccc2[nH]c3c(=O)oc(-c4ccccc4)cc3c2c1 | 0.33 µM |
| CCn1c2ccccc2c2cc(-c3ccccc3)oc(=O)c21 | 11.3 µM |
| CCn1c2ccc(OC)cc2c2cc(-c3ccccc3)oc(=O)c21 | 1.2 µM |
| COc1ccc2c(c1)c1cc(-c3ccccc3)oc(=O)c1n2C | 0.22 µM |
